Experimental data taken from patent US12389911B2, “Benzimidazole compound or salt thereof, agricultural and horticultural insecticidal and acaricidal agent containing said compound, and method for using same” (NIHON NOHYAKU CO., LTD., priority 2019, dated 2025).

tested on: Two-spotted spider mite (Tetranychus urticae); assay: Acaricidal action on two-spotted spider mite (kidney bean leaf disk spray); format: in vivo; conditions: 500 ppm, adult females, 25° C., two days after treatment
Protocol: Acaricidal Action on Two-Spotted Spider Mite (Tetranychus urticae)
Leaf disk having a diameter of 2 cm was prepared by leaves of kidney bean, and the leaf disk was placed on the wetted filter paper. Adult hens of two-spotted spider mite were inoculated on the wetted filter paper, and then 50 ml of an agrochemical dispersion, prepared by diluting a formulation containing the benzimidazole compound represented by the general formula (1) of the present invention or salt thereof as an active ingredient to adjust each of the concentrations to 500 ppm, was sprayed on turntable uniformly. After the spraying, it was allowed to stand in a thermostatic chamber at 25° C. Two days after the treatment of an agrochemical dispersion, the dead mites were counted, the corrected mortality rate was calculated according to the formula shown below, and the acaricidal efficacy was evaluated according to the criteria of Test Example 2. This test was conducted in duplicate using 10 adult hens of two-spotted spider per plot. Corrected mortality(%)=(Number of dead mites in a non-treatment plot−Number of dead mites in a treatment plot)/(Number of dead mites in a non-treatment plot)×100 [Expression 4]

Compound	acaricidal efficacy (corrected mortality rate), activity level
CCS(=O)(=O)n1c(-n2cc(C(=O)NC3CC3)c(C(C)(C)C)n2)nc2ccccc21 [Compound 2-96]	D or higher
CCS(=O)(=O)n1c(-n2cc(C(=O)OC(C)(C)C)c(OCC(F)(F)F)n2)nc2ccccc21 [Compound 2-76]	D or higher
CCS(=O)(=O)n1c(-n2cc(Br)c(C(=O)OC(C)(C)C)n2)nc2ccccc21 [Compound 2-45]	D or higher
CCS(=O)(=O)n1c(-n2cnc(C#Cc3ccccc3)c2)nc2ccccc21 [Compound 1-18]	D or higher
CCS(=O)(=O)n1c(-n2cc(CCc3ccccc3)c(C(=O)OC(C)(C)C)n2)nc2ccccc21 [Compound 2-107]	D or higher
CCS(=O)(=O)n1c(-n2cc(/C=C/C(=O)OCc3ccc(C(F)(F)F)cc3)c(C(F)(F)F)n2)nc2ccccc21 [Compound 2-115]	D or higher
CCS(=O)(=O)n1c(-n2cc(C#CC(C)(C)C)c(C(=O)OC(C)(C)C)n2)nc2ccccc21 [Compound 2-133]	D or higher
CCS(=O)(=O)n1c(-n2cc(S(=O)(=O)C(C)C)c(C(F)(F)F)n2)nc2ccccc21 [Compound 2-56]	D or higher
CCOC(=O)/C=C/c1ccn(-c2nc3ccccc3n2S(=O)(=O)CC)n1 [Compound 2-36]	D or higher
CCS(=O)(=O)n1c(-n2cc(SCc3ccc(C(C)(C)C)cc3)c(C(F)(F)F)n2)nc2ccccc21 [Compound 2-121]	D or higher
CCS(=O)(=O)n1c(-n2cnc(C#CC3CC3)c2)nc2ccccc21 [Compound 1-7]	D or higher
CCS(=O)(=O)n1c(-n2cnc(C(C)(C)C)c2)nc2ccccc21 [Compound 1-5]	D or higher
CCS(=O)(=O)n1c(-n2cc(Cl)c(C(=O)OC(C)(C)C)n2)nc2ccccc21 [Compound 2-44]	D or higher
CCS(=O)(=O)n1c(-n2cc(C(=O)c3ccccc3)c(C(F)(F)F)n2)nc2ccccc21 [Compound 2-59]	D or higher
CCOC(=O)c1cn(-c2nc3ccccc3n2S(=O)(=O)CC)nc1OCC(F)(F)C(F)(F)F [Compound 2-41]	D or higher
CCS(=O)(=O)n1c(-n2cc(C#N)c(C(F)(F)C(F)(F)F)n2)nc2ccccc21 [Compound 2-111]	D or higher
CCS(=O)(=O)n1c(-n2cc(I)c(Br)n2)nc2ccccc21 [Compound 2-35]	D or higher
CCS(=O)(=O)n1c(-n2cc(/C=C/C(=O)OCc3ccc(C(C)(C)C)cc3)c(C(F)(F)F)n2)nc2ccccc21 [Compound 2-114]	D or higher
CCS(=O)(=O)n1c(-n2cc(CCc3ccc(C(F)(F)F)cc3)cn2)nc2ccccc21 [Compound 2-4]	D or higher
CCS(=O)(=O)n1c(-n2cc(C(=O)NC(C)(C)C)c(C(C)(C)C)n2)nc2ccccc21 [Compound 2-97]	D or higher
CCS(=O)(=O)n1c(-n2cc(Br)c(OC(F)F)n2)nc2ccccc21 [Compound 2-42]	D or higher
CCS(=O)(=O)n1c(-n2cc(C(=O)OC(C)(C)C)c(OCC(F)(F)C(F)F)n2)nc2ccccc21 [Compound 2-78]	D or higher

Compound	acaricidal efficacy (corrected mortality rate), activity level
CCS(=O)(=O)n1c(-n2cc(/C=C/C(=O)OC(C)(C)C)c(C(=O)OC(C)(C)C)n2)nc2ccccc21 [Compound 2-130]	D or higher
CCS(=O)(=O)n1c(-n2ccc(C(=O)OC(C)(C)C)c2)nc2ccccc21 [Compound 7-1]	D or higher
CCS(=O)(=O)n1c(-n2cc(CCC(C)(C)C)c(C(=O)OC(C)(C)C)n2)nc2ccccc21 [Compound 2-137]	D or higher
CCCCCCC#Cc1cnn(-c2nc3ccccc3n2S(=O)(=O)CC)c1 [Compound 2-7]	D or higher
CCS(=O)(=O)n1c(-n2cc(C(=O)OC(C)(C)C)c(C#Cc3ccccc3)n2)nc2ccccc21 [Compound 2-88]	D or higher
CCS(=O)(=O)n1c(-n2cc(C#CC3CC3)c(C(F)(F)F)n2)nc2ccccc21 [Compound 2-123]	D or higher
CCS(=O)(=O)n1c(-n2cc([S+]([O-])C(C)C)c(C(F)(F)F)n2)nc2ccccc21 (stereo not shown) [Compound 2-55]	D or higher
CCS(=O)(=O)n1c(-n2cc(CCc3ccc(OC)cc3)c(C(F)(F)F)n2)nc2ccccc21 [Compound 2-6]	D or higher
CCS(=O)(=O)n1c(-n2cc(C#CCOC(=O)C(C)(C)C)c(C(F)(F)F)n2)nc2ccccc21 [Compound 2-132]	D or higher
CCS(=O)(=O)n1c(-n2nc(COC(C)(C)C)c(C(=O)OC(C)(C)C)c2C)nc2ccccc21 [Compound 2-91]	D or higher
CCS(=O)(=O)n1c(-n2cc(C#Cc3ccccn3)c(C(F)(F)F)n2)nc2ccccc21 [Compound 2-118]	D or higher
CCS(=O)(=O)n1c(-n2cc(C3CC3)c(C(=O)OC(C)(C)C)n2)nc2ccccc21 [Compound 2-105]	D or higher
CCS(=O)(=O)n1c(-n2cc(C(=O)N(C)OC)c(C(F)(F)F)n2)nc2ccccc21 [Compound 2-30]	D or higher
CCS(=O)(=O)n1c(-n2cc(C(=O)OC(C)(C)C)c(C=C(C)C)n2)nc2ccccc21 [Compound 2-86]	D or higher
CCS(=O)(=O)n1c(-n2cc(C(=O)OC(C)(C)C)c(C#CC(C)(C)C)n2)nc2ccccc21 [Compound 2-145]	D or higher
C#CCOc1nn(-c2nc3ccccc3n2S(=O)(=O)CC)cc1C(=O)OC(C)(C)C [Compound 2-92]	D or higher
CCS(=O)(=O)n1c(-n2cc(C(=O)OC(C)(C)C)c(C(=O)OC(C)(C)C)n2)nc2ccccc21 [Compound 2-62]	D or higher
CCS(=O)(=O)n1c(-n2cc(C#Cc3ccc(F)cc3)c(C(F)(F)F)n2)nc2ccccc21 [Compound 2-9]	D or higher
CCS(=O)(=O)n1c(-n2cc(C(C)=O)c(C(F)(F)F)n2)nc2ccccc21 [Compound 2-25]	D or higher
CCS(=O)(=O)n1c(-n2cnc(C#N)c2)nc2ccccc21 [Compound 1-31]	D or higher
CCS(=O)(=O)n1c(-n2cc(/C=C/C(=O)OCC34CC5CC(CC(C5)C3)C4)c(C(F)(F)F)n2)nc2ccccc21 [Compound 2-116]	D or higher
